Test results as given in article PMC10698726 (Molecular Pharmaceutics, 2023).
Read-outs that look alike come from different tables or passages of the source.

Tests used:
OCT2 [1] = target: T1, OCT2 (Homo sapiens, UniProt O15244); experiment: Concentration-dependent uptake of model substrates, OCT2-overexpressing HEK293 cells; format: in vitro ADME; parameters: expressed in transfected cells; host or cells: HEK293; settings: this study; for Km: read-out: Km ± SEM; for Clint ± SEM: vmax over Km
T1 sequence (O15244 1-555): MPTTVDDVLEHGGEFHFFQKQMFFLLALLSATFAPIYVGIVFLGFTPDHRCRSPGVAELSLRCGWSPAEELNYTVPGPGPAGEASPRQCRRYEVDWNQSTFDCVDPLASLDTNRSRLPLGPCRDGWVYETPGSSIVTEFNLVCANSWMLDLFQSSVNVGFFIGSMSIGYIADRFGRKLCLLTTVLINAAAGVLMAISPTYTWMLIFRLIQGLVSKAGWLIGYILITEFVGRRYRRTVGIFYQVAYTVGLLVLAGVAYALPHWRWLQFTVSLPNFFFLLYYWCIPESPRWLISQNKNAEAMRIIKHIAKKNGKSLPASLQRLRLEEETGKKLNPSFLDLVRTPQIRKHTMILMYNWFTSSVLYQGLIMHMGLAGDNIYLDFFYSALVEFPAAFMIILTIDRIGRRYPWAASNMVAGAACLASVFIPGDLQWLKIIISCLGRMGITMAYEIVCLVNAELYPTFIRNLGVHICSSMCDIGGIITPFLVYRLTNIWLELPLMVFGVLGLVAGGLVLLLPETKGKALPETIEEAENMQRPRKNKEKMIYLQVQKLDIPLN
Procedure: (§1) Koepsell and Gorbulev (University of Würzburg, Germany).
(§2) Prior to inhibition studies, the used model substrates were validated in concentration-dependent uptake experiments if no literature data were available (Table S2 and Figures S2 and S3). Thereby, we ensured that the model substrate concentration used in the subsequent inhibition experiments was sufficiently below the Km value of its uptake kinetics. […] On the day of the experiment, the cells were washed once with prewarmed to 37 °C HBSS (Thermo Fisher Scientific, Darmstadt, Germany) supplemented with 10 mM HEPES and pH adjusted to 7.4 (Sigma-Aldrich)—hereafter termed HBSS+. For concentration-dependent experiments, the cells were incubated with increasing substrate concentrations for 2 min. Uptake was terminated by adding ice-cold HBSS+. Afterward, the cells were washed twice with ice-cold HBSS+, and cell lysis was done with 80% (v/v) acetonitrile (LGC Standards, Wesel, Germany) to which an internal standard for eventual LC–MS/MS analysis had been added. Intracellularly accumulated substrates were then quantified by LC–MS/MS analysis, and calibration was performed with known concentrations of the respective substances. All uptake data were normalized to the number of seeded cells by measuring the total protein content in radioimmunoprecipitation assay buffer-lysed cells in a bicinchoninic acid assay.[29]

OCT1 [2] = target: T2, OCT1 (Homo sapiens, UniProt O15245); experiment: Concentration-dependent uptake of model substrates, OCT1-overexpressing HEK293 cells; format: in vitro ADME; parameters: expressed in transfected cells; host or cells: HEK293; settings: this study
T2 sequence (O15245 1-554): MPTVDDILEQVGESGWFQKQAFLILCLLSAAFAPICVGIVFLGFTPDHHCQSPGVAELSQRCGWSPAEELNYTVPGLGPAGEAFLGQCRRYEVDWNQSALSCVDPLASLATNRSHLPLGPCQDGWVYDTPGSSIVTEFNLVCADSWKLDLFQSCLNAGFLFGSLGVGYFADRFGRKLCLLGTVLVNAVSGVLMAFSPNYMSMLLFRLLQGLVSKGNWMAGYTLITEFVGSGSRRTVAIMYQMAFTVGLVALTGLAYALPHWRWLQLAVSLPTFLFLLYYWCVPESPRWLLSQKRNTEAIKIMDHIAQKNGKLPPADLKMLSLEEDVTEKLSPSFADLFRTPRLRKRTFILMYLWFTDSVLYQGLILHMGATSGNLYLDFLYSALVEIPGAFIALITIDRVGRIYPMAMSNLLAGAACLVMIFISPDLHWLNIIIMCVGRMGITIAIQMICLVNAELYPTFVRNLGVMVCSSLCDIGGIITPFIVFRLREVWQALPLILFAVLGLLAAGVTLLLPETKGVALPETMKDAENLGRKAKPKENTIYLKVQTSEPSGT
Procedure: as §1, §2

OCT3 [3] = target: T3, OCT3 (Homo sapiens, UniProt O75751); experiment: Concentration-dependent uptake of model substrates, OCT3-overexpressing HEK293 cells; format: in vitro ADME; settings: this study
T3 construct: expressed in transfected cells; host or cells: HEK293
T3 sequence (O75751 1-556): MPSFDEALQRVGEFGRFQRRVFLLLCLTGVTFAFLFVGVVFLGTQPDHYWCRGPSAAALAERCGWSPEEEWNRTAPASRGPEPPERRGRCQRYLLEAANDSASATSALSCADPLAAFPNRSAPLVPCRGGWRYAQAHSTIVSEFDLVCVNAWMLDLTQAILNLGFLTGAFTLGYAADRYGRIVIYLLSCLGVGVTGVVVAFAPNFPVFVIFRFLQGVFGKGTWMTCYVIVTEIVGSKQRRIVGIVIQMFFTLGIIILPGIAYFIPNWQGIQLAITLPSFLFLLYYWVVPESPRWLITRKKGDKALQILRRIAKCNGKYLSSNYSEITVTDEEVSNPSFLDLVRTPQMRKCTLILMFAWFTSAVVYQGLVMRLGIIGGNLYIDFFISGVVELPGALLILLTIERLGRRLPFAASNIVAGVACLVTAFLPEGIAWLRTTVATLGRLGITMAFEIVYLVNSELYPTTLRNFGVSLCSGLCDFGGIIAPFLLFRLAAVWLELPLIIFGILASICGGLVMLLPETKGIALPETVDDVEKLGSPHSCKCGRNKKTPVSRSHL
Procedure: as §1, §2

OCT3 [4] = target: T3, OCT3; parameters: method as in earlier work; settings: ref 3 (Gebauer et al., 2022, supplement), cited from earlier work; for Km: read-out: Km ± SEM
OCT2 [5] = target: T1, OCT2; experiment: Inhibition of model substrate uptake in OCT2-overexpressing HEK293 cells; settings: OCT2, 20 μM inhibitor, 5 min; for inhibition at 5 min, 20 μM: human, OCT2-overexpressing HEK293 cells
OCT1 [6] = target: T2, OCT1; experiment: Inhibition of model substrate uptake in OCT1-overexpressing HEK293 cells; format: cell-based; parameters: expressed in transfected cells; host or cells: HEK293; settings: OCT1, 20 μM inhibitor, 5 min; for inhibition at 5 min, 20 μM: human, OCT1-overexpressing HEK293 cells
Procedure: as §1
Fluorescence quantification was performed in technical duplicates.

OCT3 [7] = target: T3, OCT3; experiment: Inhibition of model substrate uptake in OCT3-overexpressing HEK293 cells; format: cell-based; settings: 5 min; for IC50: OCT3, Table S5, 2 μM ASP+ or ethambutol as model substrate, read-out: IC50
How it was run: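 Transporter-overexpressing HEK293 cells were incubated 5 min in HBSS+ with 2 μM model substrate, with or without 20 μM inhibitor or increasing inhibitor concentrations. Uptake was read as ASP^+ fluorescence or by LC–MS/MS, with empty-vector uptake subtracted. IC50 came from a Hill fit of activity versus log concentration.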

not read = substrate: CCC(CO)NCCNC(CC)CO; experiment: not read
[8] = pH 7.4, probe (S,S)-ethambutol (2 μM), (S,S)-Ethambutol inhibition [%], 2 μM (S,S)-ethambutol
[9] = pH 7.4, probe ASP+ (2 μM), ASP+ inhibition [%], 2 μM ASP+
[10] = pH 7.4, probe N-ethyllidocaine (2 μM), N-Ethyllidocaine inhibition [%], 2 μM N-ethyllidocaine
[11] = pH 7.4, probe ASP+ (2 μM), 2 μM ASP+, mean of three experiments, read-out: ASP+ inhibition [%]
[12] = pH 7.4, probe sumatriptan (2 μM), 2 μM sumatriptan, read-out: Sumatriptan inhibition [%]
[13] = HEK293, 5 min, read-out: (S)-Zolmitriptan inhibition [%], OCT3, 20 μM inhibitor, 2 μM (S)-zolmitriptan
[14] = HEK293, 5 min, read-out: (S,S)-Ethambutol inhibition [%], OCT3, 20 μM inhibitor, 2 μM (S,S)-ethambutol
[15] = HEK293, OCT3, 20 μM inhibitor, 2 μM ASP+, read-out: ASP+ inhibition [%]

CN(C)c1ccc(C=Cc2cc[n+](C)cc2)cc1 [ASP+, 4-(4-(dimethylamino)styryl)-N-methylpyridinium]
vmax ± SEM [pmol × mg Protein−1 × min−1] (OCT2 [1]): 1812 pmol × mg Protein−1 × min−1 | Km (OCT2 [1]): 29.6 µM | Clint ± SEM (OCT2 [1]): 61.3 | Km (OCT1 [2]; 2 min uptake, read-out: Km ± SEM): 11.7 µM | vmax ± SEM [pmol × mg Protein−1 × min−1] (OCT1 [2]): 2678 pmol × mg Protein−1 × min−1 | Clint ± SEM (OCT1 [2]; vmax over Km): 230 | vmax ± SEM [pmol × mg Protein−1 × min−1] (OCT3 [3]): 3381 pmol × mg Protein−1 × min−1 | Km (OCT3 [3]; read-out: Km ± SEM): 16.5 µM | Clint ± SEM (OCT3 [3]; vmax over Km): 205

NC(N)=Nc1nc(CSCCC(N)=NS(N)(=O)=O)cs1 [Famotidine]
Km (OCT3 [4]): 8.91 µM | Clint ± SEM (OCT3 [4]): 27.2 | vmax ± SEM [pmol × mg Protein−1 × min−1] (OCT3 [4]): 242 pmol × mg Protein−1 × min−1

CC[N+](CC)(CC)CC(=O)Nc1c(C)cccc1C [N-Ethyllidocaine]
vmax ± SEM [pmol × mg Protein−1 × min−1] (OCT2 [1]): 5172 pmol × mg Protein−1 × min−1 | Km (OCT2 [1]): 87.7 µM | Clint ± SEM (OCT2 [1]): 58.9 | Km (OCT3 [4]): 46.3 µM | Clint ± SEM (OCT3 [4]): 8.80 | vmax ± SEM [pmol × mg Protein−1 × min−1] (OCT3 [4]): 407 pmol × mg Protein−1 × min−1

C=C[C@H]1C[N@@]2CC[C@H]1C[C@@H]2[C@@H](O)c1ccnc2ccc(OC)cc12 [Quinidine]
inhibition at 5 min, 20 μM (OCT2 [5]; [8]): 13.3% | inhibition at 5 min, 20 μM (OCT2 [5]; [9]): 93.4% | inhibition at 5 min, 20 μM (OCT2 [5]; [10]): 50.8% | inhibition at 5 min, 20 μM (OCT1 [6]; [8]): 61.7% | inhibition at 5 min, 20 μM (OCT1 [6]; [11]): 13.1% | inhibition at 5 min, 20 μM (OCT1 [6]; [12]): 41.3% | inhibition at 20 µM (OCT3 [7]; [13]): 67% | inhibition at 20 µM (OCT3 [7]; [14]): 85.9% | inhibition at 20 µM (OCT3 [7]; [15]): 38.9% | IC50 (OCT3 [7]): 249 µM

C=C[C@H]1C[N@@]2CC[C@H]1C[C@H]2[C@H](O)c1ccnc2ccc(OC)cc12 [Quinine]
inhibition at 5 min, 20 μM (OCT2 [5]; [8]): 13.4% | inhibition at 5 min, 20 μM (OCT2 [5]; [9]): 76.9% | inhibition at 5 min, 20 μM (OCT2 [5]; [10]): 33.7% | inhibition at 5 min, 20 μM (OCT1 [6]; [8]): 54.8% | inhibition at 5 min, 20 μM (OCT1 [6]; [11]): 15.5% | inhibition at 5 min, 20 μM (OCT1 [6]; [12]): 38.2% | inhibition at 20 µM (OCT3 [7]; [13]): 32.1% | inhibition at 20 µM (OCT3 [7]; [14]): 46.2% | inhibition at 20 µM (OCT3 [7]; [15]): 10.3% | IC50 (OCT3 [7]): 78.9 µM

(+)-Sparteine
ASP+ inhibition [%] (OCT2 [5]; 2 μM ASP+): 112.4% | N-Ethyllidocaine inhibition [%] (OCT2 [5]; 2 μM N-ethyllidocaine): 99.9% | (S,S)-Ethambutol inhibition [%] (OCT1 [6]; 2 μM (S,S)-ethambutol): 83.5% | Sumatriptan inhibition [%] (OCT1 [6]; 2 μM sumatriptan): 81.6% | (S)-Zolmitriptan inhibition [%] (OCT3 [7]; OCT3, 20 μM inhibitor, 2 μM (S)-zolmitriptan): 28.7% | (S,S)-Ethambutol inhibition [%] (OCT3 [7]; OCT3, 20 μM inhibitor, 2 μM (S,S)-ethambutol): 32.7% | ASP+ inhibition [%] (OCT3 [7]; OCT3, 20 μM inhibitor, 2 μM ASP+): 5.2%

B1: OCT3 (Homo sapiens) (protein)
chain: T3 sequence (O75751 1-556)
Km (not read; other: OCT3, this study): 146 µM | Vmax (not read; other: OCT3, this study): 0.00246 µmol/min/mg

B2: OCT2 (Homo sapiens) (protein)
chain: T1 sequence (O15244 1-555)
Km (not read; other: OCT2, this study): 163 µM | Vmax (not read; other: OCT2, this study): 0.00597 µmol/min/mg
